Reference: patent publication US7501453B2, “Cyclopropanes with central nervous system activity” (The Research Foundation of State University of New York, priority 2006, dated 2009)
Read-outs that look alike come from different tables or passages of the source.

How the values were obtained:
[1] = target: T1, hSERT (Homo sapiens, UniProt P31645); test: Inhibition of [125I]RTI-55 binding to hSERT in HEK293 cell membranes
T1 construct: expressed in transfected cells; host or cells: HEK293
Method: (§1) Unknowns are weighed and dissolved in DMSO to make a 10 mM stock solution. An initial dilution to 50 μM in assay buffer for binding, or to 1 mM in water for uptake, is made. Subsequent dilutions are made with assay buffer supplemented with DMSO, maintaining a final concentration of 0.1% DMSO. Pipetting is conducted using a Biomek 2000 robotic workstation.
(§2) Inhibition of Radioligand Binding of [125I]RTI-55 to hDAT, hSERT or hNET in Colonla Cells
(§3) Cell preparation: HEK293 cells expressing hDAT, hSERT or hNET inserts are grown to 80% confluence on 150 mm diameter tissue culture dishes and serve as the tissue source. Cell membranes are prepared as follows. Medium is poured off the plate, and the plate is washed with 10 ml of calcium- and magnesium-free phospate-buffered saline. Lysis buffer (10 ml; 2 mM HEPES with 1 mm EDTA) is added. After 10 min, cells are scraped from plates, poured into centrifuge tubes, and centrifuged […] for 20 min. The supernatant fluid is removed, and the pellet is resuspended in 12-32 ml of 0.32 m sucrose using a Ploytron at setting 7 for 10 sec. The resuspension volume depends on the density of binding sites within a cell line and is chosen to reflect binding of 10% or less to the total radioactivity.
(§4) Assay conditions: Each assay tube contains 50 μl of membrane preparation (about 10-15 μg of protein), 25 μl of unknown compound used to define non-specific binding, or buffer(Krebs-HEPES, pH 7.4;122 mM NaCl, 2.5 mM CaCl2, 1.2 mM MgSO4, 10 μM pargyline, 100 μM tropolone,0.2% glucose and 0.2% ascorbic acid, buffered with 25 mM HEPES) […] of [125I]RTI-55 (40-80 pM final concentration) and additional buffer sufficient to bring up the final volume to 250 μl. Membranes are preincubated with unknowns for 10 min prior to the addition of [125I]RTI-55. The assay tubes are incubated to 25° C. for 90 min. Binding is terminated by filtration over GF/F filters using Tomtec 96-well cell harvester. Fliter are washed for six seconds with ice cold saline. Scintillation fluid is added to each square and radioactivity remaining on the filter is determined using Wallac μ- or beta plate reader. Specific binding is defined as the difference in binding observed in the presence and absence of 5 μM mazindol (HEK-hDAT and HEK-hNET) or […] imipramine (HEK-hSERT). Two or three independent competition experiments are conducted with duplicate determinations. GraphPAD Prism is used to analyze the ensuing data, with IC50 values converted to Ki values using the Cheng-Prusoff equation (Ki=IC50/(1+([125I]RTI-55/KdRTI55))).

[2] = target: T2, hDAT (Homo sapiens, UniProt Q01959); test: Inhibition of [125I]RTI-55 binding to hDAT in HEK293 cell membranes; conditions: [125I]RTI-55 displacement, HEK-hDAT membranes; IC50 converted to Ki (Cheng-Prusoff); read-out: Transporter DAT
T2 construct: expressed in transfected cells; host or cells: HEK293
Method: as §1, §2, §3, §4

[3] = target: T3, hNET (Homo sapiens, UniProt P23975); test: Inhibition of [125I]RTI-55 binding to hNET in HEK293 cell membranes; conditions: [125I]RTI-55 displacement, HEK-hNET membranes; IC50 converted to Ki (Cheng-Prusoff); read-out: Transporter NET
T3 construct: expressed in transfected cells; host or cells: HEK293
Method: as §1, §2, §3, §4

[4] = [125I]RTI-55 displacement, HEK-hSERT membranes, IC50 converted to Ki (Cheng-Prusoff), read-out: Transporter SERT

T1 sequence (P31645 whole entry): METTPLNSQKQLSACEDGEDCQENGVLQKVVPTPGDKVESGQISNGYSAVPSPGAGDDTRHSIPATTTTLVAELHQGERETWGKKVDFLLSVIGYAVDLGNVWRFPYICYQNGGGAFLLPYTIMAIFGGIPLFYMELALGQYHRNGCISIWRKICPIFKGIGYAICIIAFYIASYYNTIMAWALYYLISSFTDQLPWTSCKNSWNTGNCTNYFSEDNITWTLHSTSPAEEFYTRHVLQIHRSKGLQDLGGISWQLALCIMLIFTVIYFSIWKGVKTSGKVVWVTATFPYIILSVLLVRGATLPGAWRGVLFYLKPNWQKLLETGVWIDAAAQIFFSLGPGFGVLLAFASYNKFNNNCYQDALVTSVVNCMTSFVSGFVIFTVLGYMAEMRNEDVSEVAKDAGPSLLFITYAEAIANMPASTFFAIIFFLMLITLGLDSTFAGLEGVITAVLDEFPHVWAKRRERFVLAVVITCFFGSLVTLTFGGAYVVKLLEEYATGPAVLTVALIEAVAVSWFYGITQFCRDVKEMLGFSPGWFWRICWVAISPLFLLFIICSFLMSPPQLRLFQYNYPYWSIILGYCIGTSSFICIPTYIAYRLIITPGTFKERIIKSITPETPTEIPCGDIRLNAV
T3 sequence (P23975 whole entry): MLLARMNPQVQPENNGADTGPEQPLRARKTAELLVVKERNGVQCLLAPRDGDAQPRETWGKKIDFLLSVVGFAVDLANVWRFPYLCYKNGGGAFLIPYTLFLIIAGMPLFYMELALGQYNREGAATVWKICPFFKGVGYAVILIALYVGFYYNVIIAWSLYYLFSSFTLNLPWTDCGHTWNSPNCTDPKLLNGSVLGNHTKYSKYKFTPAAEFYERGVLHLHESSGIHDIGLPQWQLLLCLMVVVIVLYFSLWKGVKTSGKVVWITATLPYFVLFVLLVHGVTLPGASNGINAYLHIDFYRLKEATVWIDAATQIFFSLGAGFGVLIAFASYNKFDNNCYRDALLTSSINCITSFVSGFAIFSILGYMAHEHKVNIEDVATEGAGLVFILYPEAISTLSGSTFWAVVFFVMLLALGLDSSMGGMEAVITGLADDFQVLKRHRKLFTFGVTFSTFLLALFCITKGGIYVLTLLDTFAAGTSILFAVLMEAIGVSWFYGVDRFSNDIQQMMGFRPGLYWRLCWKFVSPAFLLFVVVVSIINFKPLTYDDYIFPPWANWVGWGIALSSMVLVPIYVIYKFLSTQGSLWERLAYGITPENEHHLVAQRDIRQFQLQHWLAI
T2 sequence (Q01959 whole entry): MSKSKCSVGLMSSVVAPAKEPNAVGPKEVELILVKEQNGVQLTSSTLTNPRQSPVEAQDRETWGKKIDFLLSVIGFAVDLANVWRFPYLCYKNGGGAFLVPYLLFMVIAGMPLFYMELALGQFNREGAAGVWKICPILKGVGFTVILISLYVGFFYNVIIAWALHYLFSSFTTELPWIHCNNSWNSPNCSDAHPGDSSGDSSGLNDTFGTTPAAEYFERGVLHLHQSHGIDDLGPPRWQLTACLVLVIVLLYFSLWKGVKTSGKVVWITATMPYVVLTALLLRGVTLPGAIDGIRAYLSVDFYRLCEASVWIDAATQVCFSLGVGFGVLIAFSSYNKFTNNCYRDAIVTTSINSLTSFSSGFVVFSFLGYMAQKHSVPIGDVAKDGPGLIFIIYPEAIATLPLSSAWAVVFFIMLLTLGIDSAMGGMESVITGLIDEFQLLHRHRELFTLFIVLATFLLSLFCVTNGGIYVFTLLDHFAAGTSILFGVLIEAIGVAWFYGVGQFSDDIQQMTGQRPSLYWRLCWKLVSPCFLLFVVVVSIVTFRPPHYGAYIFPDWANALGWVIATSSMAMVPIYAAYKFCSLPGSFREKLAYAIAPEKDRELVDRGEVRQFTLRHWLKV

Row | SMILES | Ki [1, 4] | Ki [2] | Ki [3] | Ki [1]
1 | CNC[C@@]1(c2ccccc2)C[C@@H]1c1ccc(Cl)c(Cl)c1 [32,219] | 114 nM | 218 nM | 1870 nM | 
2 | CNC[C@]1(c2ccccc2)C[C@H]1c1ccc(Cl)c(Cl)c1 [32,220] |  | 1450 nM | 1460 nM | 45 nM
3 | CNC[C@@]1(c2ccc(Cl)c(Cl)c2)C[C@@H]1c1ccccc1 [32,221] | 1040 nM | 1380 nM | 3130 nM | 
4 | CNC[C@]1(c2ccc(Cl)c(Cl)c2)C[C@H]1c1ccccc1 [32,222] | 4600 nM | 6600 nM | > 10000 nM | 
5 | CNC[C@]1(c2ccc(Cl)c(Cl)c2)C[C@H]1c1ccc(Cl)c(Cl)c1 [compound 32694] | 1530 nM | 1260 nM | 3700 nM | 
6 | CNC[C@@]1(c2ccc(Cl)c(Cl)c2)C[C@@H]1c1ccc(Cl)c(Cl)c1 [compound 32695] | 172 nM | 730 nM | 2900 nM | 
7 | CNC[C@]1(c2ccccc2)C[C@H]1c1ccccc1 [compound 32696] | > 7300 nM | 4650 nM | 4300 nM | 
8 | CNC[C@@]1(c2ccccc2)C[C@@H]1c1ccccc1 [compound 32697] | > 10000 nM | > 5300 nM | 3900 nM | 
9 | CNC[C@]1(c2ccccc2)C[C@H]1c1ccc2ccccc2c1 [compound 32698] |  | 1600 nM | 1270 nM | 14 nM
